The text below walks through data of ChEMBL document CHEMBL1201862, “PubChem BioAssay data set” (2004).

In general, IC50 refers to the point on the concentration scale where inhibition reaches its midpoint. One may read the EC50 as the concentration giving half of the maximal effect. Broadly, the AC50 is the concentration at which the activity in the assay is half-maximal.

Calls of active or inactive are those of the source.

For one assay, the target named is Beta-galactosidase (Escherichia coli, UniProt Q8VNN2). The assay can be described thus: Dose response counterscreen for EBI2 assay utilizing the enzyme, b-galactosidase. The class given is functional. On the technique in general: Counterscreens check selectivity or assay interference.
Sequence of Beta-galactosidase (Q8VNN2 whole entry, the tested form may be a part): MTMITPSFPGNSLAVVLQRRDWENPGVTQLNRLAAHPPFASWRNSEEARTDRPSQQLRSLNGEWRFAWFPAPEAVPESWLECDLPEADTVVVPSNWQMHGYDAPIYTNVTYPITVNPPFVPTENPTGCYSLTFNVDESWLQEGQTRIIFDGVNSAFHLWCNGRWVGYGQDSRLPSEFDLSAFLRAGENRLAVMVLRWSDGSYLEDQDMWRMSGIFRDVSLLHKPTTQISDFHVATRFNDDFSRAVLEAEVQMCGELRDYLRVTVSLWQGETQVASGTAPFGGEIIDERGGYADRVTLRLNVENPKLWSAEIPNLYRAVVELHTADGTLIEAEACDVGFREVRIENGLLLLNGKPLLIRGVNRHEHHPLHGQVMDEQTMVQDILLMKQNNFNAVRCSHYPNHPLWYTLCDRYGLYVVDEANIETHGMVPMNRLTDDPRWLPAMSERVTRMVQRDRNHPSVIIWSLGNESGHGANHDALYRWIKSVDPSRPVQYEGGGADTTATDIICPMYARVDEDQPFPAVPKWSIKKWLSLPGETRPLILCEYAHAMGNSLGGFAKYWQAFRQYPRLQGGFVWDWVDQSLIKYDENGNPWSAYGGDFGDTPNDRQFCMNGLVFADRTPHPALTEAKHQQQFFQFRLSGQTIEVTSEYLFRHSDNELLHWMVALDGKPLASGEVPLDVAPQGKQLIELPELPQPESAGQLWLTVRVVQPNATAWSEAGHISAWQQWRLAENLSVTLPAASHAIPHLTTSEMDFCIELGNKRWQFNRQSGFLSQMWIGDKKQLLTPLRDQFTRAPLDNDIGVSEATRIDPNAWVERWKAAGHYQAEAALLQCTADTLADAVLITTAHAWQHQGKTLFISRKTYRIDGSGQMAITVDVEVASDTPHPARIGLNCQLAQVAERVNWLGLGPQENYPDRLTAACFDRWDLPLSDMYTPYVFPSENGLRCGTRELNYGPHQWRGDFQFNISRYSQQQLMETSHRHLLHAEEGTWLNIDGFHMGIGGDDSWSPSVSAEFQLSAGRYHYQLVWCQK
For assay [1], the target named is Arf-GAP with SH3 domain, ANK repeat and PH domain-containing protein 1 (Homo sapiens, UniProt Q9ULH1). In kind it is functional.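 Note: biochemical fluorescence polarization dose–response screen measuring inhibition of ASAP1; ASAP1 GAP domain stimulating GTP hydrolysis by truncated human ARF1.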
Sequence of Arf-GAP with SH3 domain, ANK repeat and PH domain-containing protein 1 (Q9ULH1 whole entry, the tested form may be a part): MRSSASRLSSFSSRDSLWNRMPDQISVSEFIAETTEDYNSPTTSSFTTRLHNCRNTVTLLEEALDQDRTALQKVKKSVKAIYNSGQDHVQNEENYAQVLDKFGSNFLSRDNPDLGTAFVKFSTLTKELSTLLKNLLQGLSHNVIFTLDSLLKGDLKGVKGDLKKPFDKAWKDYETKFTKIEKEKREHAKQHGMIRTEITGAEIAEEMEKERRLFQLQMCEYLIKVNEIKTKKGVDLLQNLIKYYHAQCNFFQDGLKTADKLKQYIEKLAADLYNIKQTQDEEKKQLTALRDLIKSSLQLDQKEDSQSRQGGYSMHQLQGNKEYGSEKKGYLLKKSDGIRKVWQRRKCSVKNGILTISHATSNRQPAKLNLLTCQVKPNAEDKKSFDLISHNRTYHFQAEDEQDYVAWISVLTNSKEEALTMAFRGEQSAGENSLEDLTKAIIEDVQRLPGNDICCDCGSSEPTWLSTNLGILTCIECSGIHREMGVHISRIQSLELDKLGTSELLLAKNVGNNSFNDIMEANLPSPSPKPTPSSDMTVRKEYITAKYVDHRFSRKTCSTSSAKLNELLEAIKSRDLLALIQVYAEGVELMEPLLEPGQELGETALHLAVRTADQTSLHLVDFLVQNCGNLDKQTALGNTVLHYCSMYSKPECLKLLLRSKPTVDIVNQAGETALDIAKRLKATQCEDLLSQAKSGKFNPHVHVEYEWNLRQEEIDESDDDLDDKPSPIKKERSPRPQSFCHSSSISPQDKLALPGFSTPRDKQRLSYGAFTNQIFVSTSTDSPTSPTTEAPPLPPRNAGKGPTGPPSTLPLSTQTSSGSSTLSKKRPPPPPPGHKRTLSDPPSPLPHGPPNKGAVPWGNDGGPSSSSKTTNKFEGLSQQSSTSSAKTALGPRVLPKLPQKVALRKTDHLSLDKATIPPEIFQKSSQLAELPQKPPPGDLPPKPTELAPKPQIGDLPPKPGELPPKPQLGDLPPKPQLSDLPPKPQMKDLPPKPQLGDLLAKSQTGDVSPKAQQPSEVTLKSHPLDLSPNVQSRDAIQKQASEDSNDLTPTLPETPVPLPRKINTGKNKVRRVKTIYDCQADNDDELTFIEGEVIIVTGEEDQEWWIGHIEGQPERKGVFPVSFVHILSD
For assay [2], the target named is T1, Heat shock factor protein 1 (Mus musculus, UniProt P38532).
T1 sequence (P38532 whole entry): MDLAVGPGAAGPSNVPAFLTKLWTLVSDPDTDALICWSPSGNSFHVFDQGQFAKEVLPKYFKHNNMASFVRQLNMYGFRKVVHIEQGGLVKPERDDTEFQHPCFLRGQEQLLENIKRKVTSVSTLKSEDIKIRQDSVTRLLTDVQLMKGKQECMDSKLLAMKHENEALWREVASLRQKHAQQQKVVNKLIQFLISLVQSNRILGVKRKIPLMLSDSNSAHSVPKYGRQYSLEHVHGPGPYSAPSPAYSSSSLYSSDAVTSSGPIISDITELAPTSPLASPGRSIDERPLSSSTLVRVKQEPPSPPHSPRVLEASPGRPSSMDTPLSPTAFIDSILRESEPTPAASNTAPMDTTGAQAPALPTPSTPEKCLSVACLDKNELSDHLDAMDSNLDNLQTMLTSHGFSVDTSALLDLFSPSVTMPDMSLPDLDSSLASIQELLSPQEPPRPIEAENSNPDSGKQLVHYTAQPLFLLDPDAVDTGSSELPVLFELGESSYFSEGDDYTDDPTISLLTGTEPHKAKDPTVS
As to the kind of experiment: inhibition of MG132-induced HSE-luciferase signal, confirmation, cell-based, NIH3T3, luminescence, dose retest (AID 2382).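 Note: NIH3T3 fibroblasts with HSF1-driven luciferase reporter stressed by proteasome inhibitor MG132; luminescence from HSF1-driven luciferase expression after 8 hours of MG132 stress.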 In kind it is functional.

Assay [3] can be described thus: cells. The settings on record: HEK-CNG. In kind it is functional, cell-based.
The next assay deals with Galanin receptor type 3 (Homo sapiens, UniProt O60755). The assay can be described thus: Fluorescence-based cell-based primary high throughput dose response assay to identify antagonists of the Galanin Receptor 3 (GalR3). The class given is functional.
Sequence of Galanin receptor type 3 (O60755 whole entry): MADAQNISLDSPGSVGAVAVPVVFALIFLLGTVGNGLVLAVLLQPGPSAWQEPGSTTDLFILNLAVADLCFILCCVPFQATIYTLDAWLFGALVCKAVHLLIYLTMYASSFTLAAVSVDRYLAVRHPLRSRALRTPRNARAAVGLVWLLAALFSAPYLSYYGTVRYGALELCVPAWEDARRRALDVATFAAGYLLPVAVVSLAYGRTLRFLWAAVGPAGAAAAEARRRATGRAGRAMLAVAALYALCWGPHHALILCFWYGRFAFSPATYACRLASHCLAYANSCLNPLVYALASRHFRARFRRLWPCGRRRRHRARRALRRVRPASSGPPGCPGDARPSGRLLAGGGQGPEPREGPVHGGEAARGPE
A further assay has as its target T2, Protein RecA (Mycobacterium tuberculosis, UniProt P9WHJ3).
T2 sequence (P9WHJ3 whole entry): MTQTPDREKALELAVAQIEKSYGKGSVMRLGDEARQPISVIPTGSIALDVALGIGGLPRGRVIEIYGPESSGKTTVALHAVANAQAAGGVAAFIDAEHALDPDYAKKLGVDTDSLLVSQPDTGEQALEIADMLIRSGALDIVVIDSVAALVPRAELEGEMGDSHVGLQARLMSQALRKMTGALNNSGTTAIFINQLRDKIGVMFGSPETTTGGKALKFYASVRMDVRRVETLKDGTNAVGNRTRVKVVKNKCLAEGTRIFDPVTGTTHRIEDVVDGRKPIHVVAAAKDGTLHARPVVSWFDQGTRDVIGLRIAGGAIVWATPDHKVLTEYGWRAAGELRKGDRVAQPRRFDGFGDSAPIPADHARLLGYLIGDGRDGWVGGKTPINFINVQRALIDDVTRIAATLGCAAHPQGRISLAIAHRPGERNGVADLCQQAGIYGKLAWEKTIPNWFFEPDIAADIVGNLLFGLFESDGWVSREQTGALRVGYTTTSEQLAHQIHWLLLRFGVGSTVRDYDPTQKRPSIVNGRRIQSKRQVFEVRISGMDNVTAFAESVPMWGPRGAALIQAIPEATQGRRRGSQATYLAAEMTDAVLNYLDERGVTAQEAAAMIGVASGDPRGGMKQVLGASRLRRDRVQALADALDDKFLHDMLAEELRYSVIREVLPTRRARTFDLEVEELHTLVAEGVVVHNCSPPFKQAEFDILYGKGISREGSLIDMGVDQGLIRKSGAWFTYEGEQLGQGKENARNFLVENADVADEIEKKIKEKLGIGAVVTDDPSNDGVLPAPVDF
The assay can be described thus: Fluorescence Cell-Free Homogeneous Dose Retest to Identify Inhibitors of RecA-Intein Splicing Activity. [Related pubchem assays (depositor defined):AID2097, AID2223, AID489010, AID492950]. The class given is functional.

Assay [4] has as its target T3, Replicative DNA helicase DnaB (Mycobacterium tuberculosis, UniProt P9WMR3).
T3 sequence (P9WMR3 whole entry): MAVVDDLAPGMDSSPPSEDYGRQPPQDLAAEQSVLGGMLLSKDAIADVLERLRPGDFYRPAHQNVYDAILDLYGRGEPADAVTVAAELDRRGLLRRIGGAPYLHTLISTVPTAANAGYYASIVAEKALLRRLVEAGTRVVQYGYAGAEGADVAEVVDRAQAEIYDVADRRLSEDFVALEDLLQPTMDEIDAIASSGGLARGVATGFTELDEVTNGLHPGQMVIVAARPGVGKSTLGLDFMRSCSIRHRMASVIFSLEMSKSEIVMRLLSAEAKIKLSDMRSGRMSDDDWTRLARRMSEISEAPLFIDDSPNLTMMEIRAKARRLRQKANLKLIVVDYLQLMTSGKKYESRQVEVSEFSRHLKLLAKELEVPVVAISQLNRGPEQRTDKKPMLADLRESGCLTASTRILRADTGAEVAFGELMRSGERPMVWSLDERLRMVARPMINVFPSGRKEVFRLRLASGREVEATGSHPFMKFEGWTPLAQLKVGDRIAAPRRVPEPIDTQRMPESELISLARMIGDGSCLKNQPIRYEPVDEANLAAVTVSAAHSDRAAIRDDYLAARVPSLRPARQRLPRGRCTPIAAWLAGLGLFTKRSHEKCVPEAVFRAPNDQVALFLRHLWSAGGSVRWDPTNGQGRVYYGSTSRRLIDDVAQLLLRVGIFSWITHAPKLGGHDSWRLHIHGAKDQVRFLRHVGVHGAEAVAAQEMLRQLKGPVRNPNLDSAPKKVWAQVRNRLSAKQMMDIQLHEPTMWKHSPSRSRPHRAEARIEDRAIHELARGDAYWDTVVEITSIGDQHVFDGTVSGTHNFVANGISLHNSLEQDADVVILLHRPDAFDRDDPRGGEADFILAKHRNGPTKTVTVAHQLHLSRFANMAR
The assay can be described thus: DnaB intein splicing inhibitors, dose response, biochemical, cell-free fluorescence (AID 449749). In kind it is functional.

Assay [5] can be described thus: HepG2 cell cytotoxicity, dose response, cytotoxicity control for Shn3 inhibitor project, CellTiter-Glo, cherry-picked (AID 624134). In kind it is functional, cell-based. (In general: ATP-based viability assays read luminescence as a measure of living cells.)
A short description of assay [6]: reduction of Shn3 3'UTR firefly luciferase signal, dose response, Schnurri-3 inhibitor project, cell-based, Clone20 osteoblasts, cherry-pick, set 2 (AID 720490).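 Note: actives lower the luminescence signal as inhibitors.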 The class given is functional.
A short description of assay [7]: Shn3 3'UTR reporter inhibitors, dose response, cell-based, Clone20 osteoblasts, firefly luciferase, cherry-picked (AID 624132).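 Note: firefly luciferase luminescence from reporter carrying the Shn3 3'UTR in osteoblasts.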 In kind it is functional.
The nature of assay [8]: inhibitors of control Renilla luciferase reporter, dose response, counter-screen for Shn3 3'UTR targeting project, Clone20-Shn3RL cells, dual-Glo, cherry-pick, set 2 (AID 720724). In kind it is functional, cell-based. The conditions noted are these: Dual-Go Shn3RL. (A reporter such as luciferase makes a cellular process visible.)
Assay [9] in a line: control 3'UTR Renilla luciferase suppression, dose response, counter-screen for Shn3 inhibitor project, cell-based, Clone20-Shn3RL, cherry-picked (AID 624133). The class given is functional.
Assay [10] addresses SWI/SNF-related matrix-associated actin-dependent regulator of chromatin subfamily A member 2 (Homo sapiens, UniProt P51531). As to the kind of experiment: Luminescence-based cell-based high throughput dose response assay to identify activators of the function of SWI/SNF related, matrix associated, actin dependent regulator of chromatin, subfamily a, member 2 (SMARCA2, BRM). In kind it is functional.

The target in assay [11] is 5-hydroxytryptamine receptor 5A (Homo sapiens, UniProt P47898). The assay can be described thus: Counterscreen for agonists of OPRM1-OPRD1 heterodimerization: luminescence-based cell-based high throughput dose response assay to identify agonists of 5-hydroxytryptamine (serotonin) 5A receptor (HTR5A). [Related pubchem assays (depositor defined):AID504326, AID504355, AID504692, AID504904, AID504905]. The class given is functional.
Sequence of 5-hydroxytryptamine receptor 5A (P47898 whole entry): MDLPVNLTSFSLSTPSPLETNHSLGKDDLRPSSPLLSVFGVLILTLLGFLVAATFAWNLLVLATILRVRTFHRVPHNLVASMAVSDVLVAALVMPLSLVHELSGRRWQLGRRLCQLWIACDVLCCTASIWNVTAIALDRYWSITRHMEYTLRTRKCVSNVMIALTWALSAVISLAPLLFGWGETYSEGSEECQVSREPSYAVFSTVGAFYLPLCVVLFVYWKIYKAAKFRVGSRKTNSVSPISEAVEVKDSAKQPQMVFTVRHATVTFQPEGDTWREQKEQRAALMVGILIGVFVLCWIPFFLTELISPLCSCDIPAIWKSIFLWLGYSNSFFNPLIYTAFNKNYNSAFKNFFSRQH

Assay [12] is described as follows: Counterscreen for activators of the function of SWI/SNF related, matrix associated, actin dependent regulator of chromatin, subfamily a, member 2 (SMARCA2, BRM): Luminescence-based cell-based high throughput dose response assay to identify non-selective compounds using the VP16 reporter assay. In kind it is functional.
The target in the next assay is Mu-type opioid receptor (Homo sapiens, UniProt P35372). As to the kind of experiment: Counterscreen for agonists of heterodimerization of the mu 1 (OPRM1) and delta 1 (OPRD1) opioid receptors: Luminescence-based cell-based high throughput dose response assay to identify agonists of OPRM1 homodimerization. The class given is functional.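 Note: U2OS cells expressing OPRM1 and beta-arrestin as split beta-galactosidase partners.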
Sequence of Mu-type opioid receptor (P35372 whole entry): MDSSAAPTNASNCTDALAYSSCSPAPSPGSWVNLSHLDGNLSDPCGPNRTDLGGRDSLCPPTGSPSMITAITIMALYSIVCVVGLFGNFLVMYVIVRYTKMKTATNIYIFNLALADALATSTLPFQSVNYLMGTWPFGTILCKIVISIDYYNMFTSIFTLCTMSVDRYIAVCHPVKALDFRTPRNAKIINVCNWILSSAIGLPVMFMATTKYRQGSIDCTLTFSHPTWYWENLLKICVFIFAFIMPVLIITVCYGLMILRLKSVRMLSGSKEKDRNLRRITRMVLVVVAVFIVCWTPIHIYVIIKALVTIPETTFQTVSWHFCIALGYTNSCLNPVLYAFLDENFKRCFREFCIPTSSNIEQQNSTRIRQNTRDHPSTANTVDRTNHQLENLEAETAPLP
In assay [13] the target is Delta-type opioid receptor (Homo sapiens, UniProt P41143). As to the kind of experiment: Counterscreen for agonists of heterodimerization of the mu 1 (OPRM1) and delta 1 (OPRD1) opioid receptors: Luminescence-based cell-based high throughput dose response assay to identify agonists of OPRD1 homodimerization. [Related pubchem assays (depositor defined):AID504326, AID504355, AID504692, AID504904, AID504905]. In kind it is functional.
Sequence of Delta-type opioid receptor (P41143 whole entry): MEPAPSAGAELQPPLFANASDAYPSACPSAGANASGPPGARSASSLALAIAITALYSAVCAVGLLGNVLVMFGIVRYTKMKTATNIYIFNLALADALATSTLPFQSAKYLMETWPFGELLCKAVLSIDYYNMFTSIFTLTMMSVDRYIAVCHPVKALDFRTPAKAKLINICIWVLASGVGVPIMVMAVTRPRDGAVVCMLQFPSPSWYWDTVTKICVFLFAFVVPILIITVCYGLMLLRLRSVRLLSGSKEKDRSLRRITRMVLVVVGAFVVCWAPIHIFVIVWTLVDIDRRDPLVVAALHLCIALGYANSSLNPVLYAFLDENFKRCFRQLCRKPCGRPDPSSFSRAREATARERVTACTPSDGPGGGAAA

Assay [14] can be described thus: cells. The class given is functional, cell-based.
The target of assay [15] is T4, Trace amine-associated receptor 1 (Homo sapiens, UniProt Q96RJ0).
T4 sequence (Q96RJ0 whole entry): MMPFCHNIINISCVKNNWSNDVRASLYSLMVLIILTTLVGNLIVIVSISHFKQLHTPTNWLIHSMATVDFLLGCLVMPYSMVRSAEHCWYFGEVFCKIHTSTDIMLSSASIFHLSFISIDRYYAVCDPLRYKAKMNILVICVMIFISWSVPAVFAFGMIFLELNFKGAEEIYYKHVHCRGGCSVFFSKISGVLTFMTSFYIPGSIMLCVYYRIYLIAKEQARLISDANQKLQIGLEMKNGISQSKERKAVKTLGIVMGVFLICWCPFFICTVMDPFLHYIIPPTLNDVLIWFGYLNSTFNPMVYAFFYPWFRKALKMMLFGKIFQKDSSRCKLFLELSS
As to the kind of experiment: Counterscreen for agonists of the human trace amine associated receptor 1 (hTAAR1): Fluorescence-based cell-based high throughput dose response assay to identify hTAAR1 agonist that also desensitize TAAR1 receptor response. In kind it is functional.

The nature of assay [16]: cells. In kind it is functional, cell-based. This is another data set of the same source.
Assay [17] concerns the target T4, Trace amine-associated receptor 1. As to the kind of experiment: Fluorescence-based cell-based high throughput dose response assay to identify agonists of the human trace amine associated receptor 1 (TAAR1). The class given is functional.
The target of assay [18] is Potassium channel subfamily K member 9 (Homo sapiens, UniProt Q9NPC2). The assay can be described thus: TASK3 (KCNK9) channel inhibitors, thallium flux, SAR follow-up, selectivity assay for TASK1 inhibitor project, cell-based, FluxOR thallium flux, concentration-response (AID 652211).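 Note: potency is for inhibitors of the channel.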 The class given is functional.
Sequence of Potassium channel subfamily K member 9 (Q9NPC2 whole entry): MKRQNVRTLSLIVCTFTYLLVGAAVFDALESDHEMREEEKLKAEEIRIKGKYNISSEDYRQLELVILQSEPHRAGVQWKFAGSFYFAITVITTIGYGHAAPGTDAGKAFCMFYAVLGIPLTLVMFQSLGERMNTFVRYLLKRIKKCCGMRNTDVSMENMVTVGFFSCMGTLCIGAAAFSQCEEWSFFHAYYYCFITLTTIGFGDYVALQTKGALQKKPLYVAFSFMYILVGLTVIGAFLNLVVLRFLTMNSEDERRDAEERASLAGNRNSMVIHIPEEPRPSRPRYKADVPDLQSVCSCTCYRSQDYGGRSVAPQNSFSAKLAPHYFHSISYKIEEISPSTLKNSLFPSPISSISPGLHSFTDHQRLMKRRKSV

As to `CCCCN(Cc1ccco1)C(=O)Cn1ncc2c(=O)oc3ccc(C)cc3c21`, the values for the IC50 (on Beta-galactosidase; in assay [1]) were > 80 µM (inactive) and 53.2 µM (inactive), respectively. Further, the 50% effective concentration (EC50) in assay [2] is given as > 195 µM (not active).
Consider `O=C(c1cc2cc(Br)ccc2[nH]1)N1CCC2(CC1)OCCO2`, for which the IC50 at Beta-galactosidase is > 80 µM (inactive).
In the case of `Cc1cc(C)c(C#N)c(SCc2n[nH]c3c2C(c2ccc(F)cc2)C(C#N)=C(N)O3)n1` (stereo not drawn), the EC50 in “cells [3]” is > 29.9 µM (inactive); at Protein RecA, 11.2 µM (active). At Galanin receptor type 3, the IC50 is > 29.9 µM (inactive). Further, in assay [4], the AC50 was 6.74 µM (active).
Take `Cc1ccnc(SCC(=O)Nc2sc3c(c2C#N)CCCC3)n1`: in the assay “cells [3]”, the EC50 was > 29.9 µM (inactive). Moreover, the AC50 is 66.8 µM (active) in [5]; 1.18 µM (active) in [6]; 0.955 µM (active) in [7]; 11.9 µM (active) in [8]; 5 µM (active) in assay [9]. The IC50 at Galanin receptor type 3 is > 1.11 µM (active).
For `CN1CCN(Cc2nc3ccccc3c(=O)n2Cc2nc(-c3ccc4ccccc4c3)cs2)CC1`, the EC50 was > 91.2 µM (inactive) in assay [10]; > 92.5 µM (inactive) in assay [11]; > 91.2 µM (inactive) in [12]; > 92.5 µM (inactive) at Mu-type opioid receptor; > 92.5 µM (inactive) in assay [13]. In addition, the AC50 in assay [5] is 8.34 µM (active); in [7], 11 µM (active); in [9], 11.7 µM (active).
In the case of `O=C(NCCc1ccccc1)C1CCCN(S(=O)(=O)c2cccc3nsnc23)C1` (stereo not drawn), the values for the IC50 (in the assay “cells [14]”; in assay [15]) were > 29.9 µM (inactive) and 2.2 µM (active), respectively. In addition, the EC50 in “cells [16]” was > 29.9 µM (inactive); in assay [17] it was 0.669 µM (active).
`Cc1cccc(C(=O)Nc2cccc(NC(=O)c3ccccc3C(C)C)c2)c1`: the half-maximal inhibitory concentration (IC50) in assay [18] was 2.39 µM (active).
